Reference: US20240382493A1, “METHODS FOR TREATING SYSTEMIC MASTOCYTOSIS AND GASTROINTESTINAL STROMAL TUMORS” (Blueprint Medicines Corporation, priority 2023, published 2024)
Where two headings read alike, the source gives them in different places.

Legend:
clinical = conditions: human, in vivo, po, Tmax median treatment difference
From the text: (§1) Subjects with chronic, stable, severe HI with features of cirrhosis due to any etiology were enrolled, and the Child-Pugh scale was used to classify the severity of liver disease. The scale employs 5 clinical measures of liver disease. Each measure is scored 1 to 3, with 3 indicating most severe derangement. Subjects' scores of 10 to 15 on this scale are classified as having severe hepatic impairment.
(§2) The control subjects were matched in a 1:1 ratio to subjects with severe hepatic impairment for age, body mass index (BMI), and sex variables.

[1] = patients with severe hepatic impairment; cited from earlier work
[2] = Post-hoc analysis of pooled data of 343 patients: clearance by hepatic function; format: in vivo, human; conditions: pooled data of 343 patients (284 normal, 53 mild HI, 6 moderate HI)
From the text: As per the current avapritinib labeling, no dose adjustment is recommended for patients with mild or moderate HI.

[3] = Clinical study BLU-285-0107: single 100 mg oral dose, severe hepatic impairment vs matched control subjects, plasma PK; conditions: single oral 100 mg; for CL/F GeoMean / AUC(0-t) / AUC(0-inf) / Cmax / Tmax / Vd/F / half-life: total plasma avapritinib; for CLu/F GeoMean / Cumax GeoMean / AUC: unbound plasma avapritinib; for AUC(0-t) / AUC(0-inf) / AUC / Cmax / Tmax / Vd/F / half-life: human, plasma, po, 100 mg; for AUC(0-inf): AUC0-∞ GeoMean; for Cmax: Cmax GeoMean; for Tmax: Tmax median; for Vd/F: Vz/F GeoMean; for half-life: t1/2 arithmetic mean;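 on all read-outs here: severe hepatic impairment meant chronic stable cirrhosis with a Child-Pugh score of 10–15, and each such subject was paired one-to-one with a control of similar age, BMI and sex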
From the text: as §1, §2

[4] = cited from earlier work

## Cn1cc(-c2cc3c(N4CCN(c5ncc([C@@](C)(O)c6ccc(F)cc6)cn5)CC4)ncnn3c2)cn1 [Metabolite B]
clinical
  Tmax: 80 h

## CCOc1cc2ncc(C#N)c(Nc3ccc(OCc4ccccn4)c(Cl)c3)c2cc1NC(=O)/C=C/CN(C)C [neratinib]
[1]
  exposure (AUC) increased: 181%
  exposure (Cmax) increased: 173%

## Cn1cc(-c2cc3c(N4CCN(c5ncc([C@@](C)(N)c6ccc(F)cc6)cn5)CC4)ncnn3c2)cn1 [Avapritinib, (S)-1-(4-fluorophenyl)-1-(2-(4-(6-(1-methyl-1H-pyrazol-4-yl)pyrrolo [2,1-f][1,2,4]triazin-4-yl)piperazin-yl)pyrimidin-5-yl)ethan-1-amine]
[2]
  clearance between patients with normal liver function, mild HI and moderate HI: similar
[3]; Matched Control
  CL/F GeoMean: 15.21 L/h
  CLu/F GeoMean: 1534 L/h
  Cumax GeoMean: 1.197 ng/mL
  AUC(0-inf): 6570 ng·h/mL
  Cmax: 121 ng/mL
  Tmax: 2.25 h
  Vd/F: 1330 L
  half-life: 2.67 days
[3]; Severe HI
  CL/F GeoMean: 12.72 L/h
  CLu/F GeoMean: 950.6 L/h
  Cumax GeoMean: 1.293 ng/mL
  AUC(0-inf): 7860 ng·h/mL
  Cmax: 96.6 ng/mL
  Tmax: 1.5 h
  Vd/F: 1710 L
  half-life: 4.03 days
[3]; AUC0-24 GeoMean, Matched Control
  AUC(0-t): 1610 ng·h/mL
[3]; AUC0-24 GeoMean, Severe HI
  AUC(0-t): 1370 ng·h/mL
[3]; AUC0-240 GeoMean, Matched Control
  AUC(0-t): 6030 ng·h/mL
[3]; AUC0-240 GeoMean, Severe HI
  AUC(0-t): 6500 ng·h/mL
[3]; AUCu0-24 GeoMean, Matched Control
  AUC: 15.9 ng·h/mL
[3]; AUCu0-24 GeoMean, Severe HI
  AUC: 18.3 ng·h/mL
[3]; AUCu0-240 GeoMean, Matched Control
  AUC: 59.8 ng·h/mL
[3]; AUCu0-240 GeoMean, Severe HI
  AUC: 87 ng·h/mL
[3]; AUCu0-∞ GeoMean, Matched Control
  AUC: 65.2 ng·h/mL
[3]; AUCu0-∞ GeoMean, Severe HI
  AUC: 105 ng·h/mL

## Cn1cc(-c2cc3c(N4CCN(c5ncc([C@](C)(O)c6ccc(F)cc6)cn5)CC4)ncnn3c2)cn1 [Metabolite A]
clinical
  Tmax: 14.1 h

## N#Cc1ccccc1-c1cc(-c2ccccn2)cn(-c2ccccc2)c1=O [perampanel]
[4]; patients with mild HI
  AUC higher compared to normal: 50%
[4]; patients with moderate HI
  AUC higher compared to normal: 2.5 fold
